Measurements published in patent US11530186B2, “Inhibitors for the β-catenin / T-cell factor protein-protein interaction” (H. LEE MOFFITT CANCER CENTER AND RESEARCH INSTITUTE, INC., priority 2018, dated 2022).
Read-outs that look alike come from different tables or passages of the source.

Biological target: T1, β-catenin/Tcf protein-protein interaction (Homo sapiens, UniProt P35222)
T1 construct: Wild-type β-catenin (residues 138-781) were cloned into a pET-28b vector; 6×histidine (C); made in house; host or cells: E. coli BL21 DE3
T1 sequence (P35222 138-781): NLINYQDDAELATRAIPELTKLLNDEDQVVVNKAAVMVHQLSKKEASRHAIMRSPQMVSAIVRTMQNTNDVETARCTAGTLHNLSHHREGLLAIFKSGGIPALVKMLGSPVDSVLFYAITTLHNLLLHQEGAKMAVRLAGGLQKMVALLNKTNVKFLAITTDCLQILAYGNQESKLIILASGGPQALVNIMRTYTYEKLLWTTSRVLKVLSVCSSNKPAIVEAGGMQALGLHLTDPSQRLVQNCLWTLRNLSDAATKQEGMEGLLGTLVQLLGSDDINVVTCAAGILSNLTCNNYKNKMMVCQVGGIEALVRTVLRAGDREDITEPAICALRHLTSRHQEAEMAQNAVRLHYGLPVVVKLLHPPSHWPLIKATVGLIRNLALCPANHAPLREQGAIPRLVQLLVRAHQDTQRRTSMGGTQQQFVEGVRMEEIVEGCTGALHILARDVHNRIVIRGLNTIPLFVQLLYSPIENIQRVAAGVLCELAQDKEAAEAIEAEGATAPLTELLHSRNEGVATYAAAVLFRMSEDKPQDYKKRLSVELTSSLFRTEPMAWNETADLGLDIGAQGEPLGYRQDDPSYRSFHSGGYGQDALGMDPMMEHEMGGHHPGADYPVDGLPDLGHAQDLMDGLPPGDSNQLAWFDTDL
Experiment: FP competitive inhibition assay
Format: binding
Protocol: Protein Expression and Purification. Wild-type β-catenin (residues 138-781) were cloned into a pET-28b vector carrying a C-terminal 6×histidine (Novagen) and transformed into E. coli BL21 DE3 (Novagen). Cells were cultured in LB medium with 30 μg/mL kanamycin until the OD600 was approximately 0.8, and then protein expression was induced with 400 μM of IPTG at 20° C. overnight. Cells were lysed by sonication. The proteins were purified by Ni-NTA affinity chromatography (30210, Qiagen) and dialyzed against a buffer containing 20 mM of Tris (pH 8.8), 100 mM NaCl, 10% glycerol, and 3 mM DTT. The purity of β-catenin was set to >95% as determined by SDS-PAGE gel analysis. Native non-denaturing gel electrophoresis experiment and the thermal-shift assay on an iCycler iQ Real Time Detection System (Bio-Rad) were performed for each purified protein. In the thermal shift assay, protein unfolding was evaluated through measuring the fluorescence changes of fluorescent dye Sypro Orange with purified β-catenin proteins. A temperature increment of 1° C./min was applied to monitor protein stability and detect protein aggregation. CD spectra were measured on a J-815 spectropolarimeter (Jasco). All spectra were recorded using a 1 mm path-length quartz cell. The CD spectra were averaged over three scans, and the wavelength was scanned from 260 to 190 nm in step of 1 nm. All spectra were recorded at room temperature, and the baseline was corrected by subtracting the CD spectra of a blank control containing all of the substances except protein. Samples were prepared at a concentration around 1-5 μM in a buffer of 10 mM potassium phosphate and 100 mM potassium fluoride at pH 7.0 to ensure that the transmission of light through the sample was not restricted. All proteins were stable, and no aggregation was observed under storage or assay conditions. Proteins were aliquoted and stored at −80° C. C-terminally fluorescein-labeled human Tcf4 (residues 7-51) was synthesized and HPLC purified with purity >95%. The structures were validated by LC/MS (liquid chromatography/mass spectrometry).
FP Assays. The procedures for the FP competitive inhibition assays have been described previously (Zhang, M.; Huang, Z.; Yu, B.; Ji, H. New homogeneous high-throughput assays for inhibitors of β-catenin/Tcf protein-protein interactions Anal. Biochem. 2012, 424, 57-63; Zhang, M.; Catrow, J. L.; Ji, H. High-throughput selectivity assays for small-molecule inhibitors of β-catenin/T-cell factor protein-protein interactions. ACS Med. Chem. Lett. 2013, 4, 306-311). Briefly, all of the tested compounds were prepared as 10 mM DMSO stocks. In the primary screen, the concentrations of the compounds and DMSO were set to 50 μM and 1% (v/v). Only the compounds which FP signal decreases were greater than 50% in the single-point β-catenin/Tcf assay were evaluated by counter screen. […] In the FP competitive inhibition assay, 10 nM human β-catenin and 2.5 nM of C-terminally fluorescein-labeled human Tcf4 were incubated in an assay buffer of 137 mM NaCl, 2.7 mM KCl, 10 mM Na2HPO4, 2 mM KH2PO4, 100 μg/mL of bovine γ-globulin, and 0.01% Triton-X100 for 15 min at 4° C. Bovine γ-globulin and Triton-X100 were included in the assay buffer to decrease the likelihood of compound acting by aggregate formation. Different concentrations of the tested compounds in the assay buffer were added to each test plate to make a final volume of 100 μL. Each assay plate was covered black and gently mixed on an orbital shaker at 4° C. for 1.5 h to reach equilibrium before the polarization values were read. The IC50 value was determined by nonlinear least-square analysis of GraphPad Prism 5.0. The Ki values were derived (Nikolovska-Coleska, Z.; Wang, R.; Fang, X.; Pan, H.; Tomita, Y.; Li, P.; Roller, P. P.; Krajewski, K.; Saito, N. G.; Stuckey, J. A.; Wang, S. Development and optimization of a binding assay for the XIAP BIR3 domain using fluorescence polarization. Anal. Biochem. 2004, 332, 261-273). […]

[1] = Assay 1, mean ± SD (n = 3), read-out: Ki ± SD, Assay 1
[2] = Assay 2, mean ± SD (n = 3), read-out: Ki ± SD, Assay 2
[3] = Assay 3, mean ± SD (n = 3), read-out: Ki ± SD, Assay 3

Row | Compound | Ki [1] | Ki [2] | Ki [3] | Ki (Assay 4, mean ± SD (n = 3), read-out: Ki ± SD, Assay 4)
1 | COCCOc1ccc2sc(CCc3c(CCc4ccc(Cl)cc4)c4cc(C(=O)O)ccc4n3CCc3nn[nH]n3)nc2c1 [Compound 32, 1-(2-(2H-tetrazol-5-yl)ethyl)-3-(4-chlorophenethyl)-2-(2-(5-(2-methoxyethoxy)benzo [d]thiazol-2-yl)ethyl)-1H-indole-5-carboxylic acid] | 6.1 ± 1.5 µM | 7.5 ± 1.9 µM | 3.7 ± 1.3 µM | 
2 | COc1ccc2sc(CCc3c(CCc4ccc(Cl)cc4)c4cc(C(=O)NCc5cccc(Cl)c5)ccc4n3CCc3nn[nH]n3)nc2c1 [Compound 53, 1-(2-(2H-tetrazol-5-yl)ethyl)-N-(3-chlorobenzyl)-3-(4-chlorophenethyl)-2-(2-(5-methoxybenzo[d]thiazol-2-yl)ethyl)-1H-indole-5-carboxamide] | 2.7 ± 0.34 µM | 6.1 ± 1.2 µM |  | 
3 | O=C(O)c1ccc2c(c1)c(CCc1ccc(Cl)cc1)c(CCc1nc3ccccc3[nH]1)n2CCc1nn[nH]n1 [Compound 29, 2-(2-(1H-benzo[d]imidazol-2-yl)ethyl)-1-(2-(2H-tetrazol-5-yl)ethyl)-3-(4-chlorophenethyl)-1H-indole-5-carboxylic acid] | 11 ± 1.8 µM | 5.2 ± 1.7 µM |  | 
4 | COc1ccc2sc(CCc3c(CCc4ccc(Cl)cc4)c4cc(C(=O)NCC5CCNCC5)ccc4n3CCc3nn[nH]n3)nc2c1 [Compound 67, 4-((1-(2-(2H-tetrazol-5-yl)ethyl)-3-(4-chlorophenethyl)-2-(2-(5-methoxybenzo[d]thiazol-2-yl)ethyl)-1H-indole-5-carboxamido)methyl)piperidin-1-ium] | 5.9 ± 0.37 µM | > 22 µM |  | 
5 | O=C(O)c1ccc2c(c1)c(CCc1ccc3ccccc3c1)cn2CCc1nn[nH]n1 [Compound 13, 1-(2-(2H-tetrazol-5-yl)ethyl)-3-(2-(naphthalen-2-yl)ethyl)-1H-indole-5-carboxylic acid] | 6.5 ± 1 µM |  |  | 
6 | O=C(O)c1ccc2c(ccn2CCc2nn[nH]n2)c1 [Compound 4, 1-(2-(2H-tetrazol-5-yl)ethyl)-1H-indole-5-carboxylic acid] | 550 ± 56 µM |  |  | 
7 | CNC(=O)c1ccc2c(c1)c(CCc1ccc(C)cc1)c(-c1ccsc1)n2CCc1nn[nH]n1 [Compound 89, 1-(2-(2H-tetrazol-5-yl)ethyl)-N-methyl-3-(4-methylphenethyl)-2-(thiophen-3-yl)-1H-indole-5-carboxamide] | > 24 µM |  |  | 
8 | Cc1ccc(CCc2cn(CCc3nn[nH]n3)c3ccc(C(=O)O)cc23)nc1 [Compound 17, 1-(2-(2H-tetrazol-5-yl)ethyl)-3-(2-(5-methylpyridin-2-yl)ethyl)-1H-indole-5-carboxylic acid] | 32 ± 3.9 µM |  |  | 
9 | O=C(O)c1ccc2c(c1)c(CCc1ccc(Cl)cc1)cn2CCc1nn[nH]n1 [Compound 6, 1-(2-(2H-tetrazol-5-yl)ethyl)-3-(4-chlorophenethyl)-1H-indole-5-carboxylic acid] | 26 ± 2.3 µM | 19 ± 2.5 µM |  | 
10 | COc1ccc2sc(CCc3c(CCc4ccc(Cl)cc4)c4cc(C(=O)Nc5ccc(Cl)cc5)ccc4n3CCc3nn[nH]n3)nc2c1 [Compound 47, 1-(2-(2H-tetrazol-5-yl)ethyl)-3-(4-chlorophenethyl)-N-(4-chlorophenyl)-2-(2-(5-methoxybenzo[d]thiazol-2-yl)ethyl)-1H-indole-5-carboxamide] | 7.4 ± 1.4 µM | 10 ± 0.66 µM | 2.1 ± 0.26 µM | 2.1 ± 0.27 µM
11 | Cc1ccc(CCc2c(CCc3nc4ccccc4s3)n(CCC(=O)O)c3ccc(C(=O)O)cc23)cc1 [Compound 40, 2-(2-(benzo[d]thiazol-2-yl)ethyl)-1-(2-carboxyethyl)-3-(4-methylphenethyl)-1H-indole-5-carboxylic acid] | 5.8 ± 1.3 µM |  |  | 
12 | O=C(O)c1ccc2c(c1)c(CCc1ccc3c(c1)OCCO3)c(-c1ccsc1)n2CCc1nn[nH]n1 [Compound 87, 1-(2-(2H-tetrazol-5-yl)ethyl)-3-(2-(2,3-dihydrobenzo[b][1,4]dioxin-6-yl)ethyl)-2-(thiophen-3-yl)-1H-indole-5-carboxylic acid] | 3.4 ± 0.86 µM | 1.3 ± 0.066 µM |  | 
13 | COc1ccc2sc(CCc3c(CCc4ccc(Cl)cc4)c4cc(C(=O)NCc5ccccc5Cl)ccc4n3CCc3nn[nH]n3)nc2c1 [Compound 51, 1-(2-(2H-tetrazol-5-yl)ethyl)-N-(2-chlorobenzyl)-3-(4-chlorophenethyl)-2-(2-(5-methoxybenzo[d]thiazol-2-yl)ethyl)-1H-indole-5-carboxamide] | 3.6 ± 0.6 µM | 4.8 ± 0.84 µM |  | 

These reach a lower Ki [1]. Values come first.

Row | Ki [1] | Ki [2] | Ki [3] | Ki (Assay 4, mean ± SD (n = 3), read-out: Ki ± SD, Assay 4) | Compound
14 | 1.6 ± 0.11 µM |  |  |  | Cc1ccc(CCc2c(-c3cccs3)n(CCc3nn[nH]n3)c3ccc(C(=O)O)cc23)cc1 [Compound 77, 1-(2-(2H-tetrazol-5-yl)ethyl)-3-(4-methylphenethyl)-2-(thiophen-2-yl)-1H-indole-5-carboxylic acid]
15 | 1.1 ± 0.12 µM | 1.6 ± 0.23 µM |  |  | O=C(O)c1ccc2c(c1)c(CCc1ccc(-c3ccccc3)cc1)cn2CCc1nn[nH]n1 [Compound 18, 1-(2-(2H-tetrazol-5-yl)ethyl)-3-(2-([1,1′-biphenyl]-4-yl)ethyl)-1H-indole-5-carboxylic acid]
16 | 0.6 ± 0.039 µM |  |  |  | COc1ccc2nc(C#Cc3c(CCc4ccc(Cl)cc4)c4cc(C(=O)O)ccc4n3CCc3nn[nH]n3)sc2c1 [Compound 72, 1-(2-(2H-tetrazol-5-yl)ethyl)-3-(4-chlorophenethyl)-2-((6-methoxybenzo[d]thiazol-2-yl)ethynyl)-1H-indole-5-carboxylic acid]
17 | 1.3 ± 0.4 µM | 1.2 ± 0.23 µM |  |  | O=C(O)c1ccc2c(c1)c(CCC1CCOCC1)c(-c1ccsc1)n2CCc1nn[nH]n1 [Compound 86, 1-(2-(2H-tetrazol-5-yl)ethyl)-3-(2-(tetrahydro-2H-pyran-4-yl)ethyl)-2-(thiophen-3-yl)-1H-indole-5-carboxylic acid]
18 | 1.2 ± 0.28 µM | 3.2 ± 0.79 µM |  |  | Cc1ccc(CCc2c(-c3cc[nH]c3)n(CCc3nn[nH]n3)c3ccc(C(=O)O)cc23)cc1 [Compound 81, 1-(2-(2H-tetrazol-5-yl)ethyl)-3-(4-methylphenethyl)-2-(1H-pyrrol-3-yl)-1H-indole-5-carboxylic acid]
19 | 1 ± 0.076 µM |  |  |  | COc1ccc2nc(C#Cc3c(CCc4ccc(C)cc4)c4cc(C(=O)O)ccc4n3CCc3nn[nH]n3)sc2c1 [Compound 73, 1-(2-(2H-tetrazol-5-yl)ethyl)-2-((6-methoxybenzo[d]thiazol-2-yl)ethynyl)-3-(4-methylphenethyl)-1H-indole-5-carboxylic acid]
